Consider six compounds from US20130244875A1, “METHODS AND COMPOSITIONS FOR IMPROVING PLANT HEALTH” (priority 2006, published 2013).

Each structure is given as a SMILES string. Several values for one entry are separate records, joined by “and”; a condition that tells them apart may be missing. Identical values can stand only once. Like-named read-outs stand apart in the source and are kept apart here.

One series concerns DMOxRR2Y soybean stack. As to the kind of experiment: 2,4-D postemergence injury on DMOxRR2Y soybean. The format is in vivo. The settings on record: V3, 3, 30, 60, 120 and 280 g ae/ha, all rates, 20 days after treatment. The source says: A rate titration of 2,4-D (2,4-D amine, Helena Chemical Co., Memphis, Tenn.) was applied as postemergence (POST) treatment at V3 growth state of breeding stack of DMO soybean and RR2Y (RR2Y is MON89788 event, U.S. application Ser. No. 11/441,914) transgenic soybean. 2,4-D was applied as a postemergence (POST) treatment (V3) at 5 application rates on DMOxRR2Y soybean stack and compared for total crop injury across all application rates. The POST herbicide application rates used for this trial were 3 g ae/ha (acid equivalent/hectare), 30 g ae/ha, 60 g ae/ha, 120 g ae/ha and 280 g ae/ha of 2,4-D. The treated plants were rated for 2,4-D symptoms 20 days after treatment.

Series [1] has as its system haploid seeds of corn genotype 01DKD2. In words: Haploid corn seed pretreatment before colchicine doubling. Type of series: in vivo. As to conditions: seeds imbibed 24 hours before 0.0625% colchicine; for Doubling efficiency: water 5; for 10 inch pot survival: water 53; for Percent Pollination: water 81; for Percent germination: water 90. On the procedure:
The use of these chemicals during the doubling process is toxic and stressful to the treated plant or seed. […] To determine quantify the effect of acetyl salicylic acid (ASA) and salicylic acid (SA) on plant health of haploid plants subjected to colchicine treatments, haploid seeds of corn genotype 01DKD2 were treated with 100-500 microMolar (μM) of DCSA, ASA, or SA or combinations thereof by imbibing the seeds in a solution of the compound for 24 hours before colchicine treatment of the seeds. A solution of 0.0625% colchicine (Sigma Aldrich, St. Louis, Mo. Cat#C3915) and 1.5% DMSO (Sigma Aldrich, St. Louis, Mo. Cat#D8779) was used to treat the seeds and the seeds incubated in the solution at 25° C. for 5 days in the dark. The germination rate, survival rate of the treated plants, fertility, and doubling rate were measured.

In series [2] the test system is soybean plants. As to the kind of experiment: Copper injury on soybeans. Type of series: in vivo. The settings on record: 1000 ppm copper sulfate foliar spray alone; soybean V1-2; 5 days after treatment. The source says: Plants are sensitive to heavy metal toxicity. Heavy metals are present in the environment or sometimes applied to plants for pest control. Symptoms of plant injury following treatment with a heavy metal compound, for example, a compound containing copper, are necrotic leaf spotting and flecking with more severe injury resulting in larger reddish brown spots, […] necrosis and/or necrotic puckered leaves.

Series [3] relates to Verticillium (isolate King). As to the kind of experiment: Verticillium wilt protection in cotton, isolate King. Type of series: in vivo, Verticillium dahliae. As to conditions: cotton ST6611, DCSA 1 lb/A, glyphosate 0.75 lb/A, 24 hours before inoculation. The source says: (§1) DCSA was unexpectedly found to provide protection to cotton plants against Verticillium dahliae, causal agent of cotton wilt disease (Table 6). Cotton plants of the variety ST6611, BOLLGARD 2, ROUNDUP READY FLEX, were inoculated with a moderate isolate (DPL) or a virulent isolate (King) of Verticillium by a seedling dipping method. Seedlings at the first true leaf stage were taken out from the pots, one inch of roots were cut off, seedlings were dipped in a spore slurry for one minute, and then transplanted back in the pots. These strains were isolated and provided by Dr. Terry Wheeler (Texas A&M University, TX USA). DCSA was applied at the rate of 1 lb/A and glyphosate (ROUNDUP WEATHERMAX, Monsanto Company, St. Louis, Mo.) at the rate of 0.75 lb/A 24 hours before inoculation. Protection against Verticillium was measured on a disease severity scale of 1-9:1 being healthy and 9 being dead because of disease, and also was measured as the number of plants that survived out of 10 inoculated plants.

The subject of series [4] is Verticillium (isolate DPL). As to the kind of experiment: Verticillium wilt protection in cotton, isolate DPL. Type of series: in vivo, Verticillium dahliae. As to conditions: cotton ST6611, DCSA 1 lb/A, glyphosate 0.75 lb/A, 24 hours before inoculation.
Source text: as §1

A further series has as its system cotton plants. As to the kind of experiment: Paraquat (Gramoxone) oxidative stress injury in cotton. The format is in vivo. As to conditions: 2 DAT, DCSA (if given) 1 lb/Acre 24 hours before. As to the method: Four different cotton cultivars as indicated in Table 3 were grown in 4-inch pots for two weeks. These cotton plants were either sprayed with DCSA (BASF) at the 1 lb/A rate, or unsprayed (no DCSA application, as control). Experimental plants (treated with DCSA and untreated) were sprayed with Paraquat (Gramoxone®; Syngenta) at 30 gm/ha, 70 gm/ha, and 100 gm/ha rates, 24 hours after the application of DCSA, to simulate oxidative stress. […] The same experiment was repeated at two different growth stages of cotton (2 nodes stage and 5 nodes stage).

Series [5] concerns soybean plants. As to conditions: for % injury: N3001 non-transgenic soybean, 4 DAT, ANOVA mean; for % injury at 5 DAT Paraquat alone control 100 g ae/ha: paraquat alone 100 g ae/ha. As to the method:
For this example, the plants were grown as described in the above example. Transgenic and non transgenic soybean plants carrying the DMO gene in their genome were either treated with Paraquat (Gramoxone®; Syngenta) to create oxidative stress or with dicamba followed by Paraquat at V3 stage. The dicamba rate was 1 lb/Acre or 1120 g ae/ha. […] Plants were then evaluated for paraquat injury by visually assessing injury at a particular day after treatment (DAT) for injury on a scale of 0 to 100 percent relative to untreated control plants, with zero representing “no” injury and 100% representing “complete” injury or death. Data were collected and analyzed using suitable statistical methods.
In another experiment, the effect of externally applied DCSA was tested for its benefit in protecting soybean plants from oxidative stress injury caused by Paraquat. Different amounts of DCSA were applied 24 hrs before applying Paraquat to test any correlation between the amount of DCSA applied and the extent of protection obtained from oxidative stress measured in terms of reduction in % injury as described above. Different levels of dicamba were also applied separately to test the same hypothesis.

As to `CNC.O=C(O)COc1ccc(Cl)cc1Cl` [2,4-D], in the series with DMOxRR2Y soybean stack, the “POST 2,4-D injury compared to treated non-transgenic control A3525” value is reported as “significantly (ANOVA test) lower”.
In the case of `CC(=O)Oc1ccccc1C(=O)O` [ASA, acetyl salicylic acid], in series [1] (100 μM (each)), the Doubling efficiency is 0, the “10 inch pot survival” value is reported as 62, the “Percent Pollination” value turned out to be 86% and the Percent germination was determined as 87%. In addition, in series [1] (250 μM (each)), the Doubling efficiency turned out to be 8, the “10 inch pot survival” value was found to be 60, the “Percent Pollination” value amounted to 78% and the Percent germination is given as 85%. Besides, in series [1] (500 μM (each)), the Doubling efficiency stood at 5, the “10 inch pot survival” value is recorded as 35, the “Percent Pollination” value is 71% and the Percent germination was determined as 68%.
In the case of `O=S(=O)([O-])[O-].[Cu+2]` [Cu, copper sulfate], the Percent injury with soybean plants [2] was 45% and 45.0a Percent.
As to `O=C(O)CNCP(=O)(O)O` [Glyphosate, N-phosphonomethylglycine, reference compound], the “Severity rating (1-9)” value came out at 3.5 in series [3] (1 healthy, 9 dead, inoculated check 9) and 2 in series [4] (1 healthy, 9 dead, inoculated check 5). The “Plant survival rating (out of 10)” value in series [3] (inoculated check 0) and in series [4] (inoculated check 8) was 10 throughout.
As for `C[n+]1ccc(-c2cc[n+](C)cc2)cc1` [Paraquat], the Percentage injury stood at 35% in the series on cotton plants (cotton ST3273B2RF, Gramoxone 30 g a.i./ha); 50% in the series on cotton plants (cotton ST3273B2RF, Gramoxone 70 g a.i./ha); 50% with cotton plants (cotton ST3273B2RF, Gramoxone 100 g a.i./ha); 37.5% with cotton plants (cotton ST4575BR, Gramoxone 30 g a.i./ha); 42.5% with cotton plants (cotton ST4575BR, Gramoxone 70 g a.i./ha); 65% with cotton plants (cotton ST4575BR, Gramoxone 100 g a.i./ha). The Percentage injury was 31.5% in the series on cotton plants (cotton ST4646B2RF, Gramoxone 30 g a.i./ha); 42.5% with cotton plants (cotton ST4646B2RF, Gramoxone 70 g a.i./ha); 70% with cotton plants (cotton ST4646B2RF, Gramoxone 100 g a.i./ha); 42.5% in the series with cotton plants (cotton ST6622RF, Gramoxone 30 g a.i./ha); 50% in the series with cotton plants (cotton ST6622RF, Gramoxone 70 g a.i./ha); 70% in the series with cotton plants (cotton ST6622RF, Gramoxone 100 g a.i./ha). In addition, the “% injury” value in the series on soybean plants [5] (paraquat 30 g ae/ha at V-3) came to 32.5%; with soybean plants [5] (paraquat 70 g ae/ha at V-3), 50.8%; with soybean plants [5] (paraquat 200 g ae/ha at V-3) it was 75%. The injury rate entry with soybean plants [5] (transgenic plants contacted with Paraquat alone (Table 2)) was “about 75%”. The “% injury at 5 DAT Paraquat alone control 100 g ae/ha” value was found to be 75.83% in the series on soybean plants [5] (transgenic soybean event 462-1-21) and 77.50% in the series on soybean plants [5] (transgenic soybean event 469-13-19).
Turning to `O=C(O)c1ccccc1O` [SA, salicylic acid], in series [1] (100 μM (each)), the Doubling efficiency turned out to be 2, the “10 inch pot survival” value is listed as 48, the “Percent Pollination” value was determined as 83% and the Percent germination came to 80%. Further, in series [1] (250 μM (each)), the Doubling efficiency came out at 3, the “10 inch pot survival” value is listed as 58, the “Percent Pollination” value came out at 85% and the Percent germination was 85%. For the same compound, in series [1] (500 μM (each)), the Doubling efficiency is reported as 3, the “10 inch pot survival” value is given as 77, the “Percent Pollination” value is listed as 89% and the Percent germination is 85%.
